{"source": "patent US20060141587A1", "about": "“Process for the preparation of L-3, 4-dihydroxyphenylalanine by aerobic fermentation of a microorganism” (DSM IP Assets B.V., priority 2002, published 2006)", "key": {"[1]": {"test": "Storage stability of L-dopa in fermentation broth, extracted water phase and reextraction medium (reactive extraction, HPLC)", "format": "physicochemical", "conditions": "for change of L-dopa concentration during storage: room temperature, up to 600 h; for relative L-dopa concentration of untreated fermentation broth (sample A, pH = 7.5): pH 7.5, stored at room temperature; for relative L-dopa concentration of water phase of fermentation broth extracted by kerosene/D2EHPA (sample B, pH acidic): stored at room temperature; for relative L-dopa concentration of re-extracted organic phase by KCl (sample C, pH = 6.3): pH 6.3, stored at room temperature", "protocol": "(§1) To perform the HPLC analysis, the HPLC 1100 system of Aegilent (Waldbronn, Germany) with a Diode Array Detector was used. The compounds were measured at a wavelength of 200 nm. A Nucleosil-120-5-C18 column (250×4 mm) from Macherey-Nagel was used as the solid phase. The column was eluted using a gradient starting with eluent A (10 mM H3PO4) and eluent B (100% acetonitril). Gradient: 0 min 2% B, 25 min up to 90% B, 27 min to 30 min 2% B. The elution rate was set at 1.2 ml/min, the column temperature was set at 40° C.\nA sample of the fermentation broth in which L-dopa is present, prepared as described in example 6, which had been adjusted to pH 7,5 (sample A), was used. 5 ml kerosene containing 10% D2EHPA (pH acidic) was mixed vigorously with the same volume of sample A for 30 seconds on a vortex mixer. After separation of the two phases (about 10 minutes) the water phase containing L-dopa, the extraction medium (sample B) was stored at room temperature. L-dopa dissolved in the organic phase was reextracted by mixing 2 ml of the organic phase with 1 ml of 1 M KCl (pH=6.3) by shaking vigorously for 30s. After separation of the two phases (about 10 minutes), the water phase containing L-dopa, the reextraction medium (sample C) was stored at room temperature. The samples A, B and C were stored at room temperature for 600 hours and L-dopa concentrations were determined at several points in time (up to 600 hours). L-dopa concentrations were determined by HPLC analysis as a function of time (see: Table 3)."}, "[2]": {"test": "Stability of L-dopa in fermentation broth adjusted to different pH, stored at room temperature (HPLC)", "format": "physicochemical", "conditions": "for L-dopa concentration, fermentation broth at pH 4.5 (sample 4): pH 4.5, room temperature; for L-dopa concentration, fermentation broth at pH 4.5 (sample 4) / L-dopa concentration, fermentation broth at pH 5.5 (sample 3) / L-dopa concentration, fermentation broth at pH 6.5 (sample 2) / L-dopa concentration, fermentation broth at pH 7.5 (sample 1): broth at pH 4.5 related to 10; for L-dopa concentration, fermentation broth at pH 5.5 (sample 3): pH 5.5, room temperature; for L-dopa concentration, fermentation broth at pH 6.5 (sample 2): pH 6.5, room temperature; for L-dopa concentration, fermentation broth at pH 7.5 (sample 1): pH 7.5, room temperature", "protocol": "as §1\nA sample of the fermentation broth in which L-dopa is present, prepared as described in example 6, which had been adjusted to pH 7.5 (sample 1), pH 6.5 (sample 2), pH 5.5 (sample 3) and pH 4.5 (sample 4) was used. The samples 1, 2, 3 and 4 were stored at room temperature for 600 hours and L-dopa concentrations were determined at several points in time (up to 600 hours). L-dopa concentrations were determined by HPLC analysis as a function of time (see: Table 4) with the […], i.e. fermentation broth at pH 4.5, related to 10."}, "[3]": {"test": "Stability of L-dopa during fed-batch fermentation with and without pH-shift", "format": "physicochemical, Escherichia coli", "protocol": "Cultivations in a fermentor were conducted in a 2.0 L bioreactor (Labfors, Infors; Switzerland) with 10% inoculation; which was cultivated at 33° C. The cultivation started at pH 6.7. The mineral fermentation medium (see composition above) was directly sterilized in the bioreactor together with the calibrated pH- and Oxygen-sensors.\npH was controlled by 17.5% NH4OH (1:2 diluted) and a 5 N KOH solution. A separate glucose feed (500 g·^−1) was started when the OD620nm was higher than 5. At OD620nm 10, which was reached after about 14 hours Isopropyl-beta-D-thiogalactopyranoside (IPTG) was added to a final concentration of 0.1 mM. […]\nBiomass (OD620nm) and L-dopa concentrations were determined by HPLC analysis (see example 5 for HPLC conditions) as a function of time (see: Table 1). The L-dopa concentration at 43 hours was related to 10.\nA fermentation was performed describes as in example 6 with the following differences:\nAt OD620nm 5 (reached after 7 hours) IPTG was added.\nThe L-dopa concentration reached after 32 hours was related to 10."}}}
{"smiles": "N[C@@H](Cc1ccc(O)c(O)c1)C(=O)O", "note": "[L-dopa, L-3,4-dihydroxyphenylalanine]", "values": [{"measurement": "change of L-dopa concentration during storage", "setting": "[1]; after extraction of the broth with kerosene/D2EHPA (sample B, acidic pH)", "result": "decrease of concentration of L-dopa was nearly prevented"}, {"measurement": "change of L-dopa concentration during storage", "setting": "[1]; after re-extraction with KCl (sample C, pH 6.3)", "result": "no decrease of L-dopa concentration was observed"}, {"measurement": "change of L-dopa concentration during storage", "setting": "[1]; fermentation broth without kerosene/D2EHPA extraction (sample A, pH 7.5)", "result": "decreases during the storage time"}, {"measurement": "relative L-dopa concentration of untreated fermentation broth (sample A, pH = 7.5)", "setting": "[1]; 24 h", "result": 0.7}, {"measurement": "relative L-dopa concentration of untreated fermentation broth (sample A, pH = 7.5)", "setting": "[1]; 96 h", "result": 0.7}, {"measurement": "relative L-dopa concentration of untreated fermentation broth (sample A, pH = 7.5)", "setting": "[1]; 168 h", "result": 0.6}, {"measurement": "relative L-dopa concentration of untreated fermentation broth (sample A, pH = 7.5)", "setting": "[1]; 336 h", "result": 0.5}, {"measurement": "relative L-dopa concentration of untreated fermentation broth (sample A, pH = 7.5)", "setting": "[1]; 408 h", "result": 0.4}, {"measurement": "relative L-dopa concentration of untreated fermentation broth (sample A, pH = 7.5)", "setting": "[1]; 504 h", "result": 0.4}, {"measurement": "relative L-dopa concentration of untreated fermentation broth (sample A, pH = 7.5)", "setting": "[1]; 600 h", "result": 0.3}, {"measurement": "relative L-dopa concentration of water phase of fermentation broth extracted by kerosene/D2EHPA (sample B, pH acidic)", "setting": "[1]; 24 h", "result": 0.8}, {"measurement": "relative L-dopa concentration of water phase of fermentation broth extracted by kerosene/D2EHPA (sample B, pH acidic)", "setting": "[1]; 96 h", "result": 0.7}, {"measurement": "relative L-dopa concentration of water phase of fermentation broth extracted by kerosene/D2EHPA (sample B, pH acidic)", "setting": "[1]; 168 h", "result": 0.7}, {"measurement": "relative L-dopa concentration of water phase of fermentation broth extracted by kerosene/D2EHPA (sample B, pH acidic)", "setting": "[1]; 336 h", "result": 0.8}, {"measurement": "relative L-dopa concentration of water phase of fermentation broth extracted by kerosene/D2EHPA (sample B, pH acidic)", "setting": "[1]; 408 h", "result": 0.7}, {"measurement": "relative L-dopa concentration of water phase of fermentation broth extracted by kerosene/D2EHPA (sample B, pH acidic)", "setting": "[1]; 504 h", "result": 0.8}, {"measurement": "relative L-dopa concentration of water phase of fermentation broth extracted by kerosene/D2EHPA (sample B, pH acidic)", "setting": "[1]; 600 h", "result": 0.7}, {"measurement": "relative L-dopa concentration of re-extracted organic phase by KCl (sample C, pH = 6.3)", "setting": "[1]; 24 h", "result": 0.3}, {"measurement": "relative L-dopa concentration of re-extracted organic phase by KCl (sample C, pH = 6.3)", "setting": "[1]; 96 h", "result": 0.3}, {"measurement": "relative L-dopa concentration of re-extracted organic phase by KCl (sample C, pH = 6.3)", "setting": "[1]; 168 h", "result": 0.3}, {"measurement": "relative L-dopa concentration of re-extracted organic phase by KCl (sample C, pH = 6.3)", "setting": "[1]; 336 h", "result": 0.4}, {"measurement": "relative L-dopa concentration of re-extracted organic phase by KCl (sample C, pH = 6.3)", "setting": "[1]; 408 h", "result": 0.4}, {"measurement": "relative L-dopa concentration of re-extracted organic phase by KCl (sample C, pH = 6.3)", "setting": "[1]; 504 h", "result": 0.4}, {"measurement": "relative L-dopa concentration of re-extracted organic phase by KCl (sample C, pH = 6.3)", "setting": "[1]; 600 h", "result": 0.4}, {"measurement": "L-dopa concentration, fermentation broth at pH 4.5 (sample 4)", "setting": "[2]; 24 h", "result": 10}, {"measurement": "L-dopa concentration, fermentation broth at pH 4.5 (sample 4)", "setting": "[2]; 96 h", "result": 10}, {"measurement": "L-dopa concentration, fermentation broth at pH 4.5 (sample 4)", "setting": "[2]; 168 h", "result": 10}, {"measurement": "L-dopa concentration, fermentation broth at pH 4.5 (sample 4)", "setting": "[2]; 336 h", "result": 10}, {"measurement": "L-dopa concentration, fermentation broth at pH 4.5 (sample 4)", "setting": "[2]; 408 h", "result": 10}, {"measurement": "L-dopa concentration, fermentation broth at pH 4.5 (sample 4)", "setting": "[2]; 504 h", "result": 10}, {"measurement": "L-dopa concentration, fermentation broth at pH 4.5 (sample 4)", "setting": "[2]; 600 h", "result": 10}, {"measurement": "L-dopa concentration, fermentation broth at pH 5.5 (sample 3)", "setting": "[2]; 24 h", "result": 9}, {"measurement": "L-dopa concentration, fermentation broth at pH 5.5 (sample 3)", "setting": "[2]; 96 h", "result": 9}, {"measurement": "L-dopa concentration, fermentation broth at pH 5.5 (sample 3)", "setting": "[2]; 168 h", "result": 9}, {"measurement": "L-dopa concentration, fermentation broth at pH 5.5 (sample 3)", "setting": "[2]; 336 h", "result": 9}, {"measurement": "L-dopa concentration, fermentation broth at pH 5.5 (sample 3)", "setting": "[2]; 408 h", "result": 9}, {"measurement": "L-dopa concentration, fermentation broth at pH 5.5 (sample 3)", "setting": "[2]; 504 h", "result": 8}, {"measurement": "L-dopa concentration, fermentation broth at pH 5.5 (sample 3)", "setting": "[2]; 600 h", "result": 8}, {"measurement": "L-dopa concentration, fermentation broth at pH 6.5 (sample 2)", "setting": "[2]; 24 h", "result": 7}, {"measurement": "L-dopa concentration, fermentation broth at pH 6.5 (sample 2)", "setting": "[2]; 96 h", "result": 7}, {"measurement": "L-dopa concentration, fermentation broth at pH 6.5 (sample 2)", "setting": "[2]; 168 h", "result": 7}, {"measurement": "L-dopa concentration, fermentation broth at pH 6.5 (sample 2)", "setting": "[2]; 336 h", "result": 5}, {"measurement": "L-dopa concentration, fermentation broth at pH 6.5 (sample 2)", "setting": "[2]; 408 h", "result": 5}, {"measurement": "L-dopa concentration, fermentation broth at pH 6.5 (sample 2)", "setting": "[2]; 504 h", "result": 4}, {"measurement": "L-dopa concentration, fermentation broth at pH 6.5 (sample 2)", "setting": "[2]; 600 h", "result": 4}, {"measurement": "L-dopa concentration, fermentation broth at pH 7.5 (sample 1)", "setting": "[2]; 24 h", "result": 6}, {"measurement": "L-dopa concentration, fermentation broth at pH 7.5 (sample 1)", "setting": "[2]; 96 h", "result": 6}, {"measurement": "L-dopa concentration, fermentation broth at pH 7.5 (sample 1)", "setting": "[2]; 168 h", "result": 5}, {"measurement": "L-dopa concentration, fermentation broth at pH 7.5 (sample 1)", "setting": "[2]; 336 h", "result": 4}, {"measurement": "L-dopa concentration, fermentation broth at pH 7.5 (sample 1)", "setting": "[2]; 408 h", "result": 3}, {"measurement": "L-dopa concentration, fermentation broth at pH 7.5 (sample 1)", "setting": "[2]; 504 h", "result": 3}, {"measurement": "L-dopa concentration, fermentation broth at pH 7.5 (sample 1)", "setting": "[2]; 600 h", "result": 2}, {"measurement": "effect of pH of the fermentation broth on stability of L-dopa", "setting": "[2]; pH 7.5 to 4.5, room temperature, up to 600 h", "result": "lower pH values of the fermentation broth increase the stability of L-dopa"}, {"measurement": "stability of L-dopa in the fermentation", "setting": "[3]; fermentation at pH 6.7, no pH-shift", "result": "less stable"}, {"measurement": "stability of L-dopa in the fermentation", "setting": "[3]; fermentation with pH-shift from pH 6.7 to pH 5.8", "result": "stable"}]}
